Assay results published in patent US20090325992A1, “COMPOUND HAVING CYCLIC GROUP BOUND THERETO THROUGH SPIRO BINDING AND USE THEREOF” (ONO PHARMACEUTICAL CO., LTD., priority 2006, published 2009).
pIC50: −log10 of the molar value. Read-outs that look alike come from different tables or passages of the source.

Columns and labels:
[1] = rat, in vivo, iv, 1 mg/kg
Protocol: (§1) Measurement of Maximum Plasma Level (Cmax) and Stationary State Distribution Volume (Vss)
(§2) A compound to be evaluated is weighed, dissolved in WellSolve (trade name; manufactured by Celeste Corporation) which is heated to 60° C. and adjusted to 20 mg/mL; thereafter, the test compound is diluted by 10 times with distilled water for injection, and further diluted by 2 times with saline solution, by which intravenously administered solution is eventually made. A compound to be evaluated is dissolved in WellSolve which is heated to 60° C. and adjusted to 50 mg/mL; thereafter, the compound to be evaluated is diluted with distilled water for injection and adjusted to 1 mg/mL. Five compounds (one set) were mixed in the same amount and adjusted to final concentration of 0.2 mg/mL per one compound, by which orally administered solution is eventually made. […] The administration is conducted under fasting conditions; water is freely ingested. In the case of intravenous administration, a 0.35 mL of blood sample is taken from cervical vein by using Heparinized Syringe at 5 minutes, 15 minutes, 30 minutes, 1 hour, 2 hours, 4 hours, 6 hours, 8 hours, and 24 hours after administration. […] The obtained blood is stored in ice, and after centrifugation at 12,000 rpm for 3 minutes, blood plasma is fractionated. In the case of intravenous administration, the blood plasma sample preserved at a temperature of −80° C. is dissolved; inner standard solution (100 μL) and acetonitrile (2 mL) are added to the blood plasma sample (100 μL) and stirred, and the sample is centrifuged at 2,500 rpm for 10 minutes.
(§3) After the supernatant centrifuged is evaporated to dryness by means of a centrifugal concentrator, 67% dimethyl sulfoxide solution (150 μL) is added to the residue and dissolves them again and 20 μL of the solution is analyzed by means of LC/MS/MS.
(§4) Measurement device: Waters 2795 (manufactured by Waters Corporation) Analytical column: Unison UK-C18, 3.0 μm particle size, 2.0 mm×30 mm (manufactured by Imtakt Corporation) Analytical column temperature: Room temperature Flow rate: 200 μL/min Moving bed: 5 mM IPC-PFAA-7 solution/acetonitrile (9/1→1/9)
(§5) Measurement device: Quatro micro API (manufactured by Micromass Communications Inc.) Scan type: MPM
(§6) The monitor ion which was suitable for each sample was selected.
(§7) A portion of the compound to be intravenously administered was subjected to the following treatment. The blood plasma sample preserved at a temperature of −80° C. is dissolved; inner standard solution (50 μL) and acetonitrile (1 mL) are added to the blood plasma sample (50 μL) and stirred, and the sample is centrifuged at 3,000 rpm for 10 minutes. After the supernatant is evaporated to dryness by means of a centrifugal concentrator, the residue was redissolved in water/acetonitrile (1/1) and the solution is analyzed by means of LC/MS/MS under the following conditions.
(§8) Measurement device: 1200 series system (manufactured by Agilent Technologies) Analytical column: Asahipak OOD-50 2D, 2×150 mm (manufactured by Showa Denko K.K.) Analytical column temperature: Room temperature Moving bed: 5 mM IPC—PFAA-7 solution/acetonitrile (gradient) Flow rate: 200 μL/min

[2] = tested on: CHL/IU (cell line derived from a Chinese hamster lung); assay: Phospholipidosis detecting system using fluorescent labeling phospholipid analog (NBD-PE); format: cell-based
Protocol: Investigation with Phospholipidosis Detecting System using Fluorescent Labeling Phospholipidosis Analog under Severity Condition (1) Phospholipid Accumulation Measurement 100 μL/well as required (1 dose 2 wells) of cell suspension of CHL/IU (cell line derived from a Chinese hamster lung) (7×10^4 cells/mL) prepared by MEM (minimum essential medium) culture medium was added to a 96-well plate (96-well clear-bottom plate), and cultured for about 24 hours. After culture, the supernatant of the 96-well plate was removed, and the 100 μL/well compounds of each concentration dissolved and suspended in an MEM including 25 μmol/L nitrobenzoxadiazole dipalmitoyl phosphatidylethanolamine (NBD-PE) (hereinafter abbreviated as a NPD-PE medium) were added and treated for about 48 hours. The treatment concentrations of each compound were set to be 5, 50, 100 and 200 μM. The positive control substance was set to be amiodarone hydrochloride, and the treatment concentrations were set to be 1.25, 2.5, 5, 10 and 20 μM. In addition, 5-well untreated controls (only MEM) and 5-well NBD-PE controls (made by means of adding a 1/100 amount of DMSO to the NBD-PE culture medium) were set per compound, and cultured in the same manner. After finishing the culture, the cultures were washed twice with phosphate buffered saline (hereinafter abbreviated as PBS) (−) 100 μL/well, and the MEM (100 μL) was added to all of the treatment wells including two empty wells for WST-1 background controls and cultured for about a half hour. The fluorescence intensities of each well were measured by using a microplate reader (manufactured by Molecular Devices Inc., SPECTRA max M2; the excitation wavelength 485 nm/fluorescence wavelength 535 nm). (2) Analysis Using the average values of each dose×2 wells, a phospholipid increase rate (%) to the NBD-PE control was calculated by using the following calculating formula: Rate of increase of phospholipid accumulation (%)=100×{(test compound fluorescence intensity−non-treated control fluorescence intensity)/(NBD-PE control fluorescence intensity−non-treated control fluorescence intensity)} [Equation 2] (3) Cytotoxicity Assay 96-well plate measured in the phospholipid accumulation measurement was measured by means of Plate Reader (manufactured by Molecular Devices Inc., SPECTRA max M2) with the main wavelength of 450 nm and the correct wavelength of 690 nm to calculate a Pre value. An amount of 5 μL/well of Premix WS T-1 was added to each of the 96-hole plates by which Pre measurement was conducted. After culture for 2 to 4 hours, the 96-well plate was measured as well as the Pre measurement to calculate an Aft value. Then, the background control value was subtracted from the each measured value. A value which was calculated by subtracting the Pre value from the Aft value was used, then the cell growth rate (%) was calculated by using the following calculating formula: Cell growth rate (%)=100×[(test substance OD)/(NBD-PE control OD)] [Equation 3] (4) Determination A test dose that indicated value of 25% or more of the maximum phospholipid accumulation increase rate of amiodarone which was the positive control was determined as positive. In addition, the dose whose cell growth rate was equal to or less than 50% in the cytotoxicity assay was not used for determination of existence or nonexistence of a phospholipidosis inductive effect.

[3] = Artificial lipid membrane binding using Biacore S51 system
Protocol: Artificial Lipid Membrane Binding Account by using Biacore® S51 System
10 mM of 1,2-dioleoyl-sn-glycero-3-phosphate monosodium salt (hereinafter abbreviated as DOPA) chloroform solution was evaporated to dryness by means of an aspirator, and 0.6 mL of PBS/5% dimethyl sulfoxide (hereinafter abbreviated as DMSO) was added. The chloroform solution was fully suspended by means of a vortex mixer, and the freezing and thawing were repeated for 5 times. Liposome was created by means of a liposome preparation instrument (manufactured by Avestin Inc.) and two syringes, and was diluted to 0.5 mM with PBS/5% DMSO just prior to immobilization.
(2) Measurement Compound Preparation
38 μl of 1×PBS is added to 2 μl of a DMSO solution (10 mM), and further the 360 μl of 1×PBS/5% DMSO was added and the 50 μM of final concentration in PBS/5% DMSO was prepared and measured.
All of the following analysis used Biacore® S51 system and the measurement conditions were set by Biacore S51 Control Soft.
The measurement temperature was set to be 37° C., and PBS/5% DMSO (pH 7.4 or 6.0) was used as a buffer. Series S Sensor Chip L1 was used for a sensor chip. DOPA was immobilized in one of the measuring spots on the sensor surface and the central spot was used as a reference.
Immobilization of liposome was conducted at a flow rate of 10 μL/min for about 3 minutes and then the compound was added at a flow rate of 30 μL/min and the interaction was measured. The measurement conditions are as follows:
Assay buffer: PBS/5% DMSO (pH 7.4) Measurement temperature: 37° C. Sensor chip: Series S Sensor Chip L1 Flow rate: 10 μL/min at the time of the liposome immobilization; 30 μL/min at the time of the measurement of interaction with the compound Regeneration: 20 mM CHAPS (3-[(3-cholamidopropyl)dimethylammonio]-1-propanesulfonate), isopropylalcohol/aqueous 50 mM sodium hydroxide solution=40/60 (volume ratio) mixture solution (60 seconds)
The data processing was conducted by means of method of Abdiche et al., (Analytical biochemistry, 328, 233-243 (2004)) by using Biacore S51 Evaluation Soft.
Regarding the value of binding response (RU) in which the value of reference was subtracted, it was divided by a sample molecular weight after minute error of the DMSO concentration included in the sample solution was corrected. In addition, the value obtained here was divided by an amount of capture at the time of the cycle because the value obtained here was proportional to the amount of capture of the liposome and the value was multiplied by a million to be considered as a corrected value (Corrected value=1,000,000×RU (test compound)/molecular quantity (test compound) RU (liposome)).
The compound wherein a value of the binding response after the correction was 150 or more was determined as positive.

[4] = Measurement of maximum plasma level (Cmax) and stationary state distribution volume (Vss); details: male, Crl:CD(SD), rat, iv, 1 mg/kg
Protocol: as §1, §2, §3, §4, §5, §6, §7, §8

[5] = target: T1, CXCR4 (human T cell strain CEM cells) (Homo sapiens, UniProt P61073); assay: Inhibition of binding human SDF-1 to CEM cells (125I-SDF-1); details: 4° C., 60 minutes
T1 construct: a human T cell strain in which CXCR4 is known to be expressed; endogenous in cells; host or cells: CEM cells (human T cell strain)
Protocol: Specifically, as a system of screening a compound that inhibits the binding between SDF-1 and CXCR4, for example a system of measuring the binding between iodine-labeled SDF-1 and a human T cell strain in which CXCR4 is known to be expressed is operable.
Study for Inhibition of Binding Human SDF-1 to CEM Cells
To human T cell strain CEM cells in a binding buffer (containing HEPES and BSA), the test compound and ^125I-SDF-1 (PerkinElmer) were added and the mixture was incubated at 4° C. for 60 minutes. The reacted CEM cells were rapidly filtrated with a GF/B membrane filter plate (Packard) to adsorb. The plate was washed with phosphate buffered saline (hereinafter abbreviated to PBS) three times and then dried. Microscint+20 (Packard) was added thereto. An amount of the radioactivity bound to the CEM cells was measured using Top Count (Packard) and inhibition (%) of the test compound was calculated according to the following equation:
Inhibition={(Et−Ea)/(Et−Ec)}×100 [Equation 1]
Et: Amount of radioactivity when the test compound is not added,
Ec: Amount of radioactivity when non-radioactive SDF-1 (Pepro Tech) is added in an amount of 1,000 times as much as ^125I-SDF-1 as a test compound, and
Ea: Amount of radioactivity when the test compound is added.

T1 sequence (P61073 whole entry): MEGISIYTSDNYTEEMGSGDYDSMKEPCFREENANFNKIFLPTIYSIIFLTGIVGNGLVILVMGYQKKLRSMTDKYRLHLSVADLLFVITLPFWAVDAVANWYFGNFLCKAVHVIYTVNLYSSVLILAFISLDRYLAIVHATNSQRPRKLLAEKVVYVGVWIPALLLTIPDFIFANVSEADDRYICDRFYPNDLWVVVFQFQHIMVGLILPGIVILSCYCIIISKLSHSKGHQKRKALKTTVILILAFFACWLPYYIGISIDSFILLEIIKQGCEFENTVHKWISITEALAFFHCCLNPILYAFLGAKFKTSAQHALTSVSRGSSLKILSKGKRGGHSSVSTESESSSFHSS

Row | Distribution volume (L/kg) (stationary state distribution volume, Vss) [1] | Value of binding response (RU) ([3]; DOPA liposome, 50 μM compound, PBS/5% DMSO pH 7.4, 37° C., corrected value) | Determination (artificial lipid membrane binding) ([3]; positive = corrected binding response 150 or more) | Vd [4] [L/kg] | pIC50 [5] | Structure (SMILES) | Determination (phospholipidosis, NBD-PE system) [2] | Rate of increase of phospholipid accumulation (%) (compound dose: 200 μM) ([2]; CHL/IU cells, compound dose 200 μM, about 48 hours, relative to NBD-PE control) | Determination (phospholipidosis, NBD-PE system) ([2]; positive = 25% or more of the maximum increase rate of amiodarone)
1 | 0.90 |  |  |  |  | CC(C)CN1CCC2(CC1)CCN(CCCn1ccnc1CN(CCCC(=O)O)Cc1ncc[nH]1)C2 [Example 22(3), 4-[(1H-imidazol-2-ylmethyl)({1-[3-(8-isobutyl-2,8-diazaspiro[4.5]deca-2-yl)propyl]-1H-imidazol-2-yl}methyl)amino]butanoic acid] | Negative |  | 
2 |  | 36.1 | Negative | 0.65 | 8.40 | CCC(CC)N1CCC2(CCN(CCCn3ccnc3CN(Cc3ccc(OCC(=O)O)cc3)Cc3ncc[nH]3)C2)CC1 [Example 43, [4-({[(1-{3-[8-(1-ethylpropyl)-2,8-diazaspiro[4.5]deca-2-yl]propyl}-1H-imidazol-2-yl)methyl](1H-imidazol-2-ylmethyl)amino}methyl)phenoxy]acetic acid] |  | 16 | Negative
